From ChEMBL document CHEMBL5537171, “Design, Synthesis, and Biological Evaluation of Potent and Selective PROTAC Degraders of Oncogenic KRASG12D” (J Med Chem, 2024)
Active and inactive are the calls of the source. The rule behind the calls is not given here.

Legend:
[1] = test system: ASPC1; assay: Antiproliferative activity against human ASPC1 cells assessed as inhibition of cell viability incubated for 120 hrs of continuous treatment by Cell Titer Glo assay; type: functional, cell-based; settings: ASPC1, 120 h
[2] = Selectivity index, ratio of IC50 for human ASPC1 cells assessed as inhibition of cell viability incubated for 6 hrs followed by compound washout measured after 114 hrs by Cell Titer Glo assay to IC50 for human ASPC1 cells assessed as inhibition of cell viability incubated for 120 hrs of continuous treatment by Cell Titer Glo assay; type: functional
[3] = biological target: T1, von Hippel-Lindau disease tumor suppressor/GTPase KRas (Homo sapiens, UniProt P01116+P40337, G12D); assay: PROTAC activity at VHL/KRAS G12D mutant in human SNU1 cells assessed as inhibition of pERK level incubated for 24 hrs by Western blot analysis; type: cell-based
T1 sequence (P01116 whole entry G12D, stated change not applied): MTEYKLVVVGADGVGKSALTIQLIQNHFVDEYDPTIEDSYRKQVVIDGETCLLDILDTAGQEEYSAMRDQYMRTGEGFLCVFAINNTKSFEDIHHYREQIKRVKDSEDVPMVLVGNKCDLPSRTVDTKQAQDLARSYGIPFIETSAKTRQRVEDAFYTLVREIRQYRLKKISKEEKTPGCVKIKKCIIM
T1 sequence (P40337 whole entry, stated change not applied): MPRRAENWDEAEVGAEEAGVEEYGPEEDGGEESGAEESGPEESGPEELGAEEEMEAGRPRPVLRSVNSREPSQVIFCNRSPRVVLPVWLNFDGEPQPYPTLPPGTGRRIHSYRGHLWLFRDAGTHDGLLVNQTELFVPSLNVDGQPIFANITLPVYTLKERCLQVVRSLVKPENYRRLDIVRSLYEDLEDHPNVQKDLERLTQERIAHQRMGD

[4] = test system: Panc 04.03; assay: Antiproliferative activity against human Panc 04.03 cells harboring KRAS G12D mutant assessed as inhibition of cell viability incubated for 5 days by Cell Titer Glo assay; type: functional, cell-based; settings: Panc 04.03, 120 h
[5] = Competitive binding affinity to His-tagged VHL/Elongin C/Elongin B/KRAS G12D mutant (unknown origin) by FP assay; set-up: species or system Homo sapiens
[6] = test system: von Hippel-Lindau disease tumor suppressor/GTPase KRas (Homo sapiens), P01116+P40337 [G12V]; assay: PROTAC activity at VHL/KRAS G12V mutant in human SK-CO-1 cells assessed as induction of protein degradation at 0.1 uM incubated for 24 hrs by Western blot analysis; type: cell-based
[7] = test system: von Hippel-Lindau disease tumor suppressor/GTPase KRas (Homo sapiens), P01116+P40337 [G12R]; assay: PROTAC activity at VHL/KRAS G12R mutant in human CAL-62 cells assessed as induction of protein degradation at 0.1 uM incubated for 24 hrs by Western blot analysis; type: cell-based
[8] = test system: SNU1; assay: Antiproliferative activity against human SNU1 cells harboring KRAS G12D mutant assessed as inhibition of cell viability incubated for 5 days by Cell Titer Glo assay; type: functional, cell-based; settings: SNU1, 120 h
[9] = test system: von Hippel-Lindau disease tumor suppressor/GTPase KRas (Homo sapiens), P01116+P40337 [G12D]; assay: PROTAC activity at VHL/KRAS G12D mutant in human ASPC1 cells assessed as induction of protein degradation at 1 uM pretreated with (2S,4R)-1-((S)-2-acetamido-3,3-dimethylbutanoyl)-4-hydroxy-N-((S)-1-(4-(4-methylthiazol-5-yl)phenyl)ethyl)pyrrolidine-2-carboxamide followed by compound treatment for 6 hrs by Western blot analysis; type: cell-based
Chain of von Hippel-Lindau disease tumor suppressor/GTPase KRas (Homo sapiens), P01116+P40337 [G12D] (P01116 whole entry G12D): as the sequence (P01116 whole entry G12D, stated change not applied) above
Chain of von Hippel-Lindau disease tumor suppressor/GTPase KRas (Homo sapiens), P01116+P40337 [G12D] (P40337 whole entry partner): as the sequence (P40337 whole entry, stated change not applied) above

[10] = test system: von Hippel-Lindau disease tumor suppressor/GTPase KRas (Homo sapiens), P01116+P40337 [G12D]; assay: PROTAC activity at VHL/KRAS G12D mutant in human ASPC1 cells assessed as decrease in pERK level at 1 uM incubated upto 24 hrs by Western blot analysis; type: cell-based
[11] = AUClast in BALB/c mouse at 10 mg/kg, sc by LC-MS/MS analysis; type: ADME, organism-based; settings: in vivo
[12] = Competitive binding affinity to His-tagged VHL/Elongin C/Elongin B (unknown origin) by FP assay; set-up: species or system Homo sapiens
[13] = test system: ASPC1; assay: Downregulation of KRT9 level in human ASPC1 cells at 0.1 uM incubated for 6 hrs by DIA-based proteomic analysis; type: functional, cell-based
[14] = test system: von Hippel-Lindau disease tumor suppressor/GTPase KRas (Homo sapiens), P01116+P40337 [G12D]; assay: PROTAC activity at VHL/KRAS G12D mutant in human ASPC1 cells assessed as induction of protein degradation at 1 uM incubated for 6 hrs followed by compound washout measured after 72 hrs by Western blot analysis; type: cell-based
[15] = biological target: T1, von Hippel-Lindau disease tumor suppressor/GTPase KRas; assay: PROTAC activity at VHL/KRAS G12D mutant in human AGS cells assessed as induction of protein degradation incubated for 24 hrs by Western blot analysis; type: cell-based
[16] = Tmax in BALB/c mouse at 10 mg/kg, sc by LC-MS/MS analysis; type: ADME, organism-based; settings: in vivo
[17] = Toxicity in BALB/c nude mouse xenografted with human ASPC1 cells assessed as drug tolerance at 50 mg/kg, sc for 22 days; type: organism-based; settings: in vivo, 528 h, time 22 day
[18] = biological target: T1, von Hippel-Lindau disease tumor suppressor/GTPase KRas; assay: PROTAC activity at VHL/KRAS G12D mutant in human ASPC1 cells assessed as inhibition of pERK level incubated for 24 hrs by Western blot analysis; type: cell-based
[19] = test system: von Hippel-Lindau disease tumor suppressor/GTPase KRas (Homo sapiens), P01116+P40337 [G12D]; assay: In vivo PROTAC activity at VHL/KRAS G12D mutant in human ASPC1 cells xenografted in BALB/c nude mouse assessed as induction of protein degradation at 50 mg/kg, sc measured for >24 hrs; type: functional, organism-based
[20] = test system: ASPC1; assay: Antitumor activity in human ASPC1 cells xenografted in BALB/c nude mouse assessed as tumor growth inhibition at 30 mg/kg, ip bid for 22 days relative to control; type: functional; settings: ASPC1, 528 h, time 22 day, read-out: TGI
[21] = test system: von Hippel-Lindau disease tumor suppressor/GTPase KRas (Homo sapiens), P01116+P40337 [G12D]; assay: PROTAC activity at VHL/KRAS G12D mutant in human ASPC1 cells assessed as decrease in pERK level at 1 uM incubated for 6 hrs followed by compound washout measured upto 72 hrs by Western blot analysis; type: cell-based
[22] = Cmax in BALB/c mouse at 10 mg/kg, sc by LC-MS/MS analysis; type: ADME, organism-based; settings: in vivo
[23] = test system: von Hippel-Lindau disease tumor suppressor/GTPase KRas (Homo sapiens), P01116+P40337 [G12D]; assay: In vivo PROTAC activity at VHL/KRAS G12D mutant in human ASPC1 cells xenografted in BALB/c nude mouse assessed as decrease in DUSP4 mRNA level at 50 mg/kg, sc measured for 24 hrs by RT-qPCR analysis; type: functional, organism-based
[24] = biological target: T1, von Hippel-Lindau disease tumor suppressor/GTPase KRas; assay: PROTAC activity at VHL/KRAS G12D mutant in human SNU1 cells assessed as induction of protein degradation incubated for 24 hrs by Western blot analysis; type: cell-based
[25] = test system: von Hippel-Lindau disease tumor suppressor/GTPase KRas (Homo sapiens), P01116+P40337 [G12D]; assay: PROTAC activity at VHL/KRAS G12D mutant in human ASPC1 cells assessed as induction of protein degradation at 0.1 uM incubated for 24 hrs by Western blot analysis relative to control; type: cell-based
[26] = species: Homo sapiens; assay: Binding affinity to His-tagged VHL/Elongin C/Elongin B/GST-tagged KRAS G12D mutant (unknown origin) incubated for 1 hr by HTRF assay
[27] = test system: von Hippel-Lindau disease tumor suppressor/GTPase KRas (Homo sapiens), P01116+P40337 [G12D]; assay: In vivo PROTAC activity at VHL/KRAS G12D mutant in human ASPC1 cells xenografted in BALB/c nude mouse assessed as induction of protein degradation at 50 mg/kg, sc measured for 3 to 72 hrs by Western blot analysis; type: functional, organism-based; settings: time 3-72 hrs
[28] = test system: von Hippel-Lindau disease tumor suppressor/GTPase KRas (Homo sapiens), P01116+P40337 [G12D]; assay: PROTAC activity at VHL/KRAS G12D mutant in human ASPC1 cells assessed as induction protein degradation at 1 uM measured for 6 hrs by Western blot analysis relative to control; type: cell-based
[29] = test system: von Hippel-Lindau disease tumor suppressor/GTPase KRas (Homo sapiens), P01116+P40337 [G12D]; assay: PROTAC activity at VHL/KRAS G12D mutant in human ASPC1 cells assessed as induction of protein degradation at 1 uM incubated for 6 hrs by Western blot analysis; type: cell-based
[30] = test system: von Hippel-Lindau disease tumor suppressor/GTPase KRas (Homo sapiens), P01116+P40337 [G12C]; assay: PROTAC activity at VHL/KRAS G12C mutant in human NCI-H358 cells assessed as induction of protein degradation at 1 uM incubated for 24 hrs by Western blot analysis relative to control; type: cell-based
[31] = test system: HPAF-II; assay: Antiproliferative activity against human HPAF-II cells harboring KRAS G12D mutant assessed as inhibition of cell viability incubated for 5 days by Cell Titer Glo assay; type: functional, cell-based; settings: 120 h
[32] = Toxicity in BALB/c nude mouse xenografted with human ASPC1 cells assessed as notable toxic symptoms at 50 mg/kg, sc for 22 days; type: organism-based; settings: in vivo, 528 h, time 22 day

For `CCc1c(F)ccc2cc(O)cc(-c3ncc4c(N5C[C@H]6CC[C@@H](C5)N6)nc(OC[C@@H]5CCCN5CCCCOCC(=O)N[C@H](C(=O)N5C[C@H](O)C[C@H]5C(=O)N[C@@H](C)c5ccc(-c6scnc6C)cc5)C(C)(C)C)nc4c3F)c12`, which IC50 [1] is on record?
Its IC50 is 61.1 nM.

And the “Ratio IC50” value [2]?
Its value is 3.78.

What about the IC50 [3] of the same molecule?
Its IC50 is 17.7 nM.

And the IC50 [4]?
Its IC50 is 51.5 nM.

What about the IC50 [5] of the same molecule?
Its IC50 is 18.8 nM.

What about the Activity [6] of the same molecule?
The Activity was “inactive”.

What about the Activity [7] of the same molecule?
The Activity was “inactive”.

And the IC50 [8]?
The IC50 was 43.5 nM.

And the Activity [9]?
The Activity was “inactive”.

What about the Activity [10] of the same molecule?
Its Activity is “Active”.

What about the AUC(0-t) [11] of the same molecule?
Its AUC(0-t) is 4470 ng·h/mL.

What about the IC50 [12] of the same molecule?
The IC50 was 299 nM.

What about the Activity [13] of the same molecule?
The Activity was “Active”.

What about the Activity [14] of the same molecule?
Its Activity is “Active”.

What about the DC50 [15] of the same molecule?
The DC50 was 7.49 nM.

What about the Tmax [16] of the same molecule?
The Tmax was 15 min.

What about the Activity [17] of the same molecule?
Its Activity is “Non-Toxic”.

And the IC50 [18]?
Its IC50 is 52.9 nM.

And the Activity [19]?
The Activity was “Active”.

And the inhibition in vivo at 30 mg/kg [20]?
Its inhibition in vivo at 30 mg/kg is 89.1%.

And the Activity [21]?
The Activity was “Active”.

What about the Cmax [22] of the same molecule?
The Cmax was 2080 ng/mL.

What about the Activity [23] of the same molecule?
The Activity was “Active”.

And the DC50 [24]?
Its DC50 is 19.8 nM.

And the Activity [25]?
The Activity was 75.8%.

What about the Activity [26] of the same molecule?
The Activity was “Active”.

What about the Activity [27] of the same molecule?
The Activity was “Active”.

And the Activity [28]?
Its Activity is 95%.

What about the Activity [29] of the same molecule?
Its Activity is “Active”.

And the Activity [30]?
The Activity was 37.4%.

And the IC50 [31]?
The IC50 was 45.2 nM.

And the Activity [32]?
The Activity was “Non-Toxic”.
